This is an account of results in patent US20050009840A1 (SUGEN, INC., priority 2003, published 2005).

Molecules are shown by their SMILES.

The target of this experiment is T1, Met kinase domain (GST fusion protein) (Homo sapiens, UniProt P08581).
T1 construct: Purified GST fusion protein containing the Met kinase domain
T1 sequence (P08581 1078-1345 limits assumed): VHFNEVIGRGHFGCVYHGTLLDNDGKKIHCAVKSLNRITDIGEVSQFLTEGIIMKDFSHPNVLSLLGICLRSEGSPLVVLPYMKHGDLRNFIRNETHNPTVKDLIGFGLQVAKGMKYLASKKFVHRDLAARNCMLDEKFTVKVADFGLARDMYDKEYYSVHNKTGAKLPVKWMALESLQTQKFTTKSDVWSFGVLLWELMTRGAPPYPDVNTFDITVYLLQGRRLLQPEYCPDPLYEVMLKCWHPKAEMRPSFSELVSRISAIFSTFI
The experiment can be described thus: Met transphosphorylation assay (ELISA, poly(glu-tyr) substrate).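 Note: Cell-free ELISA with plate-bound poly(Glu:Tyr 4:1) phosphorylated by GST-fused Met kinase domain plus ATP and Mn2+, phosphotyrosine detected by anti-phosphotyrosine antibody with HRP and ABTS read-out.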 In kind it is biochemical. The conditions noted are these: Table 2; read-out: Met IC50.
As a reminder, the IC50 is the concentration that gives 50% inhibition. As for `Nc1ncc(-c2cccc(NS(=O)(=O)CCN3CC[C@@H](CO)C3)c2)cc1OCc1c(F)ccc(F)c1Cl` [Example I-261, 2-[(3R)-3-Hydroxymethyl-pyrrolidin-1-yl]-ethanesulfonic acid {3-[6-amino-5-(2-chloro-3,6-difluoro-benzyloxy)-pyridin-3-yl]-phenyl}-amide], the IC50 turned out to be 1700 nM.
To `Nc1ncc(-c2cccc(NS(=O)(=O)CCN3CCC(O)CC3)c2)cc1OCc1c(F)ccc(F)c1Cl` [Example I-262, 2-(4-Hydroxy-piperidin-1-yl)-ethanesulfonic acid {3-[6-amino-5-(2-chloro-3,6-difluoro-benzyloxy)-pyridin-3-yl]-phenyl}-amide] belongs 1500 nM; to `Nc1ncc(-c2cccc(NS(=O)(=O)CCN3CCN(C(=O)CO)CC3)c2)cc1OCc1c(F)ccc(F)c1Cl` [Example I-263, 2-[4-(2-Hydroxy-acetyl)-piperazin-1-yl]-ethanesulfonic acid {3-[6-amino-5-(2-chloro-3,6-difluoro-benzyloxy)-pyridin-3-yl]-phenyl}-amide], 1140 nM; to `Nc1ncc(-c2cccc(NS(=O)(=O)CCN3CC[C@@H](O)C3)c2)cc1OCc1c(F)ccc(F)c1Cl` [Example I-264, 2-[(3R)-3-Hydroxy-pyrrolidin-1-yl]-ethanesulfonic acid {3-[6-amino-5-(2-chloro-3,6-difluoro-benzyloxy)-pyridin-3-yl]-phenyl}-amide], 1100 nM.
Consider `Nc1ncc(-c2cccc(NS(=O)(=O)CCNCC3CC3)c2)cc1OCc1c(F)ccc(F)c1Cl` [Example I-265, 2-(Cyclopropylmethyl-amino)-ethanesulfonic acid {3-[6-amino-5-(2-chloro-3,6-difluoro-benzyloxy)-pyridin-3-yl]-phenyl}-amide], for which the IC50 came out at 1000 nM.
To `Nc1ncc(-c2cccc(NS(=O)(=O)CCNC3CC3)c2)cc1OCc1c(F)ccc(F)c1Cl` [Example I-266, 2-Cyclopropylamino-ethanesulfonic acid {3-[6-amino-5-(2-chloro-3,6-difluoro-benzyloxy)-pyridin-3-yl]-phenyl}-amide] belongs 900 nM.
To `Nc1ncc(-c2cccc(N3CCCC3)c2)cc1OCc1c(F)ccc(F)c1Cl` [Example I-268, 3-(2-Chloro-3,6-difluoro-benzyloxy)-5-(3-pyrrolidin-1-yl-phenyl)-pyridin-2-ylamine; compound with trifluoro-acetic acid] belongs 4000 nM; to `CC(Oc1cc(-c2ccc(NS(=O)(=O)CCN3CCCCC3)cc2)cnc1N)c1c(F)ccc(F)c1Cl` (centres unmarked) [Example I-286, 2-Piperidin-1-yl-ethanesulfonic acid (4-{6-amino-5-[1-(2-cloro-3,6-difluoro-phenyl)-ethoxy]-pyridin-3-yl}-phenyl)-amide], 180 nM.
To `CC(Oc1cc(-c2ccc(NS(=O)(=O)CCN3CCC(O)CC3)cc2)cnc1N)c1c(F)ccc(F)c1Cl` (centres unmarked) [Example I-287, 2-(4-Hydroxy-piperidin-1-yl)-ethanesulfonic acid (4-{6-amino-5-[1-(2-chloro-3,6-difluoro-phenyl)-ethoxy]-pyridin-3-yl}-phenyl)-amide] belongs 140 nM.
`CC(Oc1cc(-c2ccc(NS(=O)(=O)CCN(C)C)cc2)cnc1N)c1c(F)ccc(F)c1Cl` (centres unmarked) [Example I-288]: the IC50 amounted to 150 nM.
To `CC(Oc1cc(-c2ccc(NS(=O)(=O)CCNC3CC3)cc2)cnc1N)c1c(F)ccc(F)c1Cl` (centres unmarked) [Example I-289, 2-Cyclopropylamino-ethanesulfonic acid (4-{6-amino-5-[1-(2-chloro-3,6-difluoro-phenyl)-ethoxy]-pyridin-3-yl}-phenyl)-amide] belongs 160 nM; to `CC(Oc1cc(-c2cccc(C(=O)N3CC[C@@H](N)C3)c2)cnc1N)c1c(Cl)ccc(F)c1Cl` (some centres unmarked) [Example I-293], 51 nM.
To `CC(Oc1cc(-c2ccc(C(=O)N3CCN(C)CC3)cc2)cnc1N)c1c(Cl)ccc(F)c1Cl` (centres unmarked) [Example I-295, (4-{6-Amino-5-[1-(2,6-dichloro-3-fluoro-phenyl)-ethoxy]-pyridin-3-yl}-phenyl)-(4-methyl-piperazin-1-yl)-methanone] belongs 79 nM; to `CC(Oc1cc(-c2ccc(NS(=O)(=O)CCNC3CC3)cc2)cnc1N)c1c(Cl)ccc(F)c1Cl` (centres unmarked) [Example I-297, 2-Cyclopropylamino-ethanesulfonic acid (4-{6-amino-5-[1-(2,6-dichloro-3-fluoro-phenyl)-ethoxy]-pyridin-3-yl}-phenyl)-amide], 164 nM; to `CC(Oc1cc(-c2ccc(NS(=O)(=O)CCN3CC[C@@H](O)C3)cc2)cnc1N)c1c(Cl)ccc(F)c1Cl` (some centres unmarked) [Example I-299], 62 nM.
To `CC(Oc1cc(-c2ccc(C(=O)NCCCN3CCCC3)cc2)cnc1N)c1c(Cl)ccc(F)c1Cl` (centres unmarked) [Example I-301, 4-{6-Amino-5-[1-(2,6-dichloro-3-fluoro-phenyl)-ethoxy]-pyridin-3-yl}-N-(3-pyrrolidin-1-yl-propyl)-benzamide] belongs 64 nM; to `CC(Oc1cc(-c2ccc(C(=O)NCCN3CCOCC3)cc2)cnc1N)c1c(Cl)ccc(F)c1Cl` (centres unmarked) [Example I-302, 4-{6-Amino-5-[1-(2,6-dichloro-3-fluoro-phenyl)-ethoxy]-pyridin-3-yl}-N-(2-morpholin-4-yl-ethyl)-benzamide], 71 nM.
With `CC(Oc1cc(-c2ccc(C(=O)N3CC[C@@H](N)C3)cc2)cnc1N)c1c(Cl)ccc(F)c1Cl` (stereo partly drawn) [Example I-304, (4-{6-Amino-5-[1-(2,6-dichloro-3-fluoro-phenyl)-ethoxy]-pyridin-3-yl}-phenyl)-((R)-3-amino-pyrrolidin-1-yl)-methanone], the IC50 was found to be 72 nM.
For `CC(Oc1cc(-c2ccc(C(=O)N3CCC(N)CC3)cc2)cnc1N)c1c(Cl)ccc(F)c1Cl` (centres unmarked) [Example I-305, (4-{6-Amino-5-[1-(2,6-dichloro-3-fluoro-phenyl)-ethoxy]-pyridin-3-yl}-phenyl)-(4-amino-piperidin-1-yl)-methanone] the value was 180 nM; for `CC(Oc1cc(-c2ccc(C(=O)N3CC[C@H](O)C3)cc2)cnc1N)c1c(Cl)ccc(F)c1Cl` (stereo partly drawn) [Example I-306, (4-{6-Amino-5-[1-(2,6-dichloro-3-fluoro-phenyl)-ethoxy]-pyridin-3-yl}-phenyl)-((S)-3-hydroxy-pyrrolidin-1-yl)-methanone], 24 nM.
For `CC(Oc1cc(-c2ccc(C(=O)N3CC[C@@H](O)C3)cc2)cnc1N)c1c(Cl)ccc(F)c1Cl` (stereo partly drawn) [Example I-307, (4-{6-Amino-5-[1-(2,6-dichloro-3-fluoro-phenyl)-ethoxy]-pyridin-3-yl}-phenyl)-((R)-3-hydroxy-pyrrolidin-1-yl)-methanone] the value was 22 nM; for `CC(Oc1cc(-c2ccc(C(=O)N3CCC[C@@H]3CO)cc2)cnc1N)c1c(Cl)ccc(F)c1Cl` (stereo partly drawn) [Example I-308, (4-{6-Amino-5-[1-(2,6-dichloro-3-fluoro-phenyl)-ethoxy]-pyridin-3-yl}-phenyl)-((R)-2-hydroxymethyl-pyrrolidin-1-yl)-methanone], 33 nM; for `CCN(CC)CCNC(=O)c1ccc(-c2cnc(N)c(OC(C)c3c(Cl)ccc(F)c3Cl)c2)cc1` (centres unmarked) [Example I-309, 4-{6-Amino-5-[1-(2,6-dichloro-3-fluoro-phenyl)-ethoxy]-pyridin-3-yl}-N-(2-diethylamino-ethyl)-benzamide], 40 nM.
Regarding `CC(Oc1cc(-c2cccc(C(=O)N3CCN(C)CC3)c2)cnc1N)c1c(Cl)ccc(F)c1Cl` (centres unmarked) [Example I-312], the IC50 worked out at 62 nM.
To `CC(Oc1cc(-c2cccc(C(=O)NC3CCN(C)CC3)c2)cnc1N)c1c(Cl)ccc(F)c1Cl` (centres unmarked) [Example I-313, 3-{6-Amino-5-[1-(2,6-dichloro-3-fluoro-phenyl)-ethoxy]-pyridin-3-yl}-N-(1-methyl-piperidin-4-yl) benzamide] belongs 69 nM; to `CC(Oc1cc(-c2cccc(C(=O)N3CCC[C@H]3CN3CCCC3)c2)cnc1N)c1c(Cl)ccc(F)c1Cl` (stereo partly drawn) [Example I-314, (3-{6-Amino-5-[1-(2,6-dichloro-3-fluoro-phenyl)-ethoxy]-pyridin-3-yl}-phenyl)-((S)-2-pyrrolidin-1-ylmethyl-pyrrolidin-1-yl)-methanone], 60 nM.
Turning to `CC(=O)N1CCN(CCNC(=O)c2cccc(-c3cnc(N)c(OC(C)c4c(Cl)ccc(F)c4Cl)c3)c2)CC1` (centres unmarked) [Example I-315, N-[2-(4-Acetyl-piperazin-1-yl)-ethyl]-3-{6-amino-5-[1-(2,6-dichloro-3-fluoro-phenyl)-ethoxy]-pyridin-3-yl}-benzamide], the IC50 stood at 69 nM.
For `CC(Oc1cc(-c2cccc(C(=O)N3CC[C@H](N)C3)c2)cnc1N)c1c(Cl)ccc(F)c1Cl` (stereo partly drawn) [Example I-316, (3-{6-Amino-5-[1-(2,6-dichloro-3-fluoro-phenyl)-ethoxy]-pyridin-3-yl}-phenyl)-((S)-3-amino-pyrrolidin-1-yl)-methanone] the value was 48 nM.
To `CC(Oc1cc(-c2cccc(C(=O)N3CCC[C@@H]3CN3CCCC3)c2)cnc1N)c1c(Cl)ccc(F)c1Cl` (stereo partly drawn) [Example I-318, (3-{6-Amino-5-[1-(2,6-dichloro-3-fluoro-phenyl)-ethoxy]-pyridin-3-yl}-phenyl)-((R)-2-pyrrolidin-1-ylmethyl-pyrrolidin-1-yl)-methanone] belongs 130 nM; to `CC(Oc1cc(-c2cccc(C(=O)NCCN3CCCC3)c2)cnc1N)c1c(Cl)ccc(F)c1Cl` (centres unmarked) [Example I-319, 3-{6-Amino-5-[1-(2,6-dichloro-3-fluoro-phenyl)-ethoxy]-pyridin-3-yl}-N-(2-pyrrolidin-1-yl-ethyl)-benzamide], 100 nM.
For `CC(Oc1cc(-c2cccc(C(=O)NCCCN3CCCC3)c2)cnc1N)c1c(Cl)ccc(F)c1Cl` (centres unmarked) [Example I-320, 3-{6-Amino-5-[1-(2,6-dichloro-3-fluoro-phenyl)-ethoxy]-pyridin-3-yl}-N-(3-pyrrolidin-1-yl-propyl)-benzamide] the value was 130 nM; for `CC(Oc1cc(-c2cccc(C(=O)NCCN3CCOCC3)c2)cnc1N)c1c(Cl)ccc(F)c1Cl` (centres unmarked) [Example I-321, 3-{6-Amino-5-[1-(2,6-dichloro-3-fluoro-phenyl)-ethoxy]-pyridin-3-yl}-N-(2-morpholin-4-yl-ethyl)-benzamide], 180 nM.
